The values that follow come from ChEMBL document CHEMBL5104195, “Discovery of Orally Bioavailable SOS1 Inhibitors for Suppressing KRAS-Driven Carcinoma” (J Med Chem, 2022).

In data set [1] the target is T1, Son of sevenless homolog 1 (Homo sapiens, UniProt Q07889).
T1 sequence (Q07889 whole entry): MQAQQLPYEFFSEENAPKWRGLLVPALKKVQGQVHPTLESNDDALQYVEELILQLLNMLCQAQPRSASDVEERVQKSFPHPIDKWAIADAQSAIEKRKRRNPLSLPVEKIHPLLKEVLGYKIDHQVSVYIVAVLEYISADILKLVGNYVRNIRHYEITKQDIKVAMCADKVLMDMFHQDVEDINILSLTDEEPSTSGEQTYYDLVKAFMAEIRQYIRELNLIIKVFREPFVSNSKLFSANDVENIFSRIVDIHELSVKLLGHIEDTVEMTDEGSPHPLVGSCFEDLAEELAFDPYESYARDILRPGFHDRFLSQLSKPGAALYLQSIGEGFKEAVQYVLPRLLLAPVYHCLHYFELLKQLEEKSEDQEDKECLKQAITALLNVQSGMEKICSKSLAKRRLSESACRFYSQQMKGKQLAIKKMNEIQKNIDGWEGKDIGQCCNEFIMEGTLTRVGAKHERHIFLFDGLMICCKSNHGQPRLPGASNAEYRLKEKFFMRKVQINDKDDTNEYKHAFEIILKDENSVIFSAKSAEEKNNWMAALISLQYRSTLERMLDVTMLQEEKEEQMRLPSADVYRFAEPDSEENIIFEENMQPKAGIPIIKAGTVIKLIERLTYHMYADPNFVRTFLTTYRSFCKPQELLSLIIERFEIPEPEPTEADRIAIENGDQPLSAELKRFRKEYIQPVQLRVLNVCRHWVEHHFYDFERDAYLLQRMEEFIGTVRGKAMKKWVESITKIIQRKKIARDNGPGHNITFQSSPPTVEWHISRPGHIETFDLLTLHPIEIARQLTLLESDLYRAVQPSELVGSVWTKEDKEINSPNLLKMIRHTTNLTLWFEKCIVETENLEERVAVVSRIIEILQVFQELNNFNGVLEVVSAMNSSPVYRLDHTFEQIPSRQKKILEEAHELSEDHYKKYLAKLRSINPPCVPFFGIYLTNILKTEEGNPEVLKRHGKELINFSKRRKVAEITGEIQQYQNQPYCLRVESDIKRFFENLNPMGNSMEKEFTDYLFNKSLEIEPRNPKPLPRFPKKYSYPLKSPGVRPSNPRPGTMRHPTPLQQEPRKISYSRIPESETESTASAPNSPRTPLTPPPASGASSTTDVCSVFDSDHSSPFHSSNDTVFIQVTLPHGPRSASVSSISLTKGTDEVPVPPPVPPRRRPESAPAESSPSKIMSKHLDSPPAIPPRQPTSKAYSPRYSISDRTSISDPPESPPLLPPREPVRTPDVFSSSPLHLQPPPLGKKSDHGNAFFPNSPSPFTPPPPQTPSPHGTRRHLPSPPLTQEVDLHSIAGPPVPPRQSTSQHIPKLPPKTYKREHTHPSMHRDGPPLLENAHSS
Nature of the data set: Inhibition of SOS1 in human DLD-1 cells assessed as reduction in ERK phosphorylation incubated for 1 hr by fluorescence assay. It is filed as cell-based.

A short description of data set [2]: Elimination rate constant in ICR mouse at 50 mg/kg, po measured up to 24 hrs by LC-MS/MS analysis. To be noted: in vivo.
Data set [3] in a line: Half life in ICR mouse at 50 mg/kg, po measured up to 24 hrs by LC-MS/MS analysis. As to conditions: in vivo.
A short description of data set [4]: in vivo. To be noted: ICR, mouse, po, 50 mg/kg.
A short description of data set [5]: in vivo. As to conditions: ICR, mouse, po, 50 mg/kg. The source holds these as a separate data set.
Data set [6] can be described thus: in vivo. As to conditions: ICR, mouse, po, 50 mg/kg. This is another data set of the same source.
Data set [7] is described as follows: MRT in ICR mouse at 50 mg/kg, po measured up to 24 hrs by LC-MS/MS analysis. To be noted: in vivo.
The nature of data set [8]: Plasma protein binding in mouse at 2 uM preincubated for 1 hr by balanced dialysis based LC-MS/MS analysis.
Data set [9] can be described thus: Toxicity in BALB/c nude mouse xenografted with human MIA PaCa-21 cells expressing KRAS G12C mutant assessed as weight loss at 50 mg/kg, po qd measured on day 21. To be noted: in vivo.
The nature of data set [10]: Plasma protein binding in rat at 2 uM preincubated for 1 hr by balanced dialysis based LC-MS/MS analysis.
Data set [11] in a line: Plasma protein binding in monkey at 2 uM preincubated for 1 hr by balanced dialysis based LC-MS/MS analysis. As to conditions: rhesus monkey.
Data set [12] can be described thus: Toxicity in BALB/c nude mouse xenografted with human MIA PaCa-21 cells expressing KRAS G12C mutant assessed as animal death at 50 mg/kg, po qd measured on day 21. As to conditions: in vivo, 504 h.
The nature of data set [13]: Plasma protein binding in dog at 2 uM preincubated for 1 hr by balanced dialysis based LC-MS/MS analysis.
Data set [14] concerns the target SOS1-KRAS (Homo sapiens, UniProt Q07889). The data set is described as follows: Inhibition of N-terminal His6-tagged human recombinant SOS1(564 to 1049 residues)/human recombinant KRAS G12C mutant incubated for 60 mins by HTRF assay.

With `Cc1nc(N[C@H](C)c2cccc(C(F)F)c2F)c2cc3c(cc2n1)OCC[C@H]1CN(CC#N)CCN31`, in data set [1], the IC50 was 70 nM.
Turning to `Cc1nc(N[C@H](C)c2cccc(C(F)F)c2F)c2cc3c(cc2n1)OCC[C@H]1CN(CC2COC2)CCN31`, the k el at 24 h in data set [2] is 2.61e-05 s⁻¹. Besides, in data set [3], the half-life at 24 h was 7.39 h. The molecule also yielded an area under the curve (AUC) at 24 h in [4] of 10700 ng·h/mL. In addition, the Tmax at 24 h in data set [5] was 3 h. In [6], this molecule returned a Cmax at 24 h of 645 ng/mL. In addition, the MRT at 24 h in [7] was 7.64 h.
As to `Cc1nc(N[C@H](C)c2cccc(C(F)F)c2F)c2cc3c(cc2n1)OCC[C@H]1CN(c2ccnn2C)CCN31`, the fraction unbound at 1 h, 2 µM in data set [8] was 0.079; in data set [10], 0.107; in data set [11], 0.015; in data set [13], 0.01. This molecule also had a k el at 24 h in [2] of 7.36e-05 s⁻¹. Further, the Activity result in data set [9] and in [12] was “Non-Toxic” each time. The half-life at 24 h in [3] is 2.61 h. Moreover, the exposure (AUC) at 24 h in [4] is 48800 ng·h/mL. Further, in data set [5], the Tmax at 24 h is 0.33 h. Also, the peak level in data set [6] (Cmax at 24 h) was 4690 ng/mL. Moreover, the mean residence time (MRT) at 24 h in data set [7] was found to be 4.47 h.
Turning to `Cc1nc(N[C@H](C)c2cccc(C(F)F)c2F)c2cc3c(cc2n1)OC[C@H]1CN(C(=O)C2(C#N)CC2)CCN31`, the IC50 in data set [1] came to 13 nM; in data set [14], 8.4 nM.
`Cc1nc(N[C@H](C)c2cccc(C(F)F)c2F)c2cc3c(cc2n1)OCC[C@H]1CN(C(=O)c2cccnc2)CCN31`: the k el at 24 h in data set [2] is 0.000135 s⁻¹. The molecule also had a half-life at 24 h in data set [3] of 1.47 h. The AUC at 24 h in data set [4] was 3180 ng·h/mL. The Tmax at 24 h in data set [5] is 0.333 h. In data set [6], this molecule yielded a peak concentration (Cmax) at 24 h of 1580 ng/mL. In data set [7], the mean residence time (MRT) at 24 h is 1.78 h.
`COCCN1CCN2c3cc4c(N[C@H](C)c5cccc(C(F)F)c5F)nc(C)nc4cc3OCC[C@H]2C1`: in data set [2], the k el at 24 h was 2.64e-05 s⁻¹. Moreover, in data set [3], the half-life at 24 h was 7.23 h. The same molecule yielded an exposure (AUC) at 24 h in [4] of 5420 ng·h/mL. For the same molecule, the Tmax at 24 h in data set [5] is 5.67 h. Further, in [6], the concentration peaked (Cmax at 24 h) at 433 ng/mL. In data set [7], this molecule came in with a mean residence time (MRT) at 24 h of 8.31 h.
Take `Cc1nc(N[C@H](C)c2cccc(C(F)F)c2F)c2cc3c(cc2n1)OCC[C@H]1CN(C(=O)[C@@H]2CCOC2)CCN31`: the fraction unbound at 1 h, 2 µM was 0.006 in [8], 0.001 in [10], 0.001 in data set [11] and 0.001 in data set [13]. In addition, the k el at 24 h in data set [2] was 8.39e-05 s⁻¹. Further, the Activity result in data set [9] and in data set [12] was “Non-Toxic” in each case. For the same molecule, the half-life at 24 h in data set [3] is 2.29 h. For the same molecule, the AUC at 24 h in data set [4] was 7490 ng·h/mL. Besides, the Tmax at 24 h in data set [5] is 0.417 h. In data set [6], this molecule registered a Cmax at 24 h of 1450 ng/mL. The mean residence time (MRT) at 24 h in data set [7] was 2.89 h.
For `Cc1nc(N[C@H](C)c2cccc(C(F)F)c2F)c2cc3c(cc2n1)OCC[C@H]1CN(C(=O)C2COC2)CCN31`, the k el at 24 h in [2] is 0.000142 s⁻¹. This molecule showed a half-life at 24 h in data set [3] of 1.36 h. In data set [4], this molecule had an AUC at 24 h of 1610 ng·h/mL. Besides, in data set [5], the time of peak concentration (Tmax) at 24 h was found to be 0.38 h. In addition, in [6], the concentration peaked (Cmax at 24 h) at 885 ng/mL. The molecule further gave an MRT at 24 h in [7] of 1.7 h.
In [2], `Cc1nc(N[C@H](C)c2cccc(C(F)F)c2F)c2cc3c(cc2n1)OCC[C@H]1CN(C)CCN31` gave a k el at 24 h of 9.78e-06 s⁻¹. This molecule also showed a half-life at 24 h in data set [3] of 20 h. The same molecule showed an AUC at 24 h in [4] of 3250 ng·h/mL. The Tmax at 24 h in data set [5] turned out to be 3.5 h. For the same molecule, the highest level in data set [6] (Cmax at 24 h) was 191 ng/mL. In [7], this molecule yielded a mean residence time (MRT) at 24 h of 9.58 h.
